Paper PMC11696576, “Next generation thiazolyl ketone inhibitors of cytosolic phospholipase A2 α for targeted cancer therapy” (Nature Communications, 2025)
Several values for one entry are separate records, joined by “and”; a condition that tells them apart may be missing. Equal values may be shown once. Read-outs that look alike come from different tables or passages of the source.

Test system: CCRF-CEM cells
Test: cell viability, CTG assay, CCRF-CEM
Conditions: for cell viability (0 µM = 100): listed as AVX420; for cell viability (Control = 100): VEH
Procedure: Data are the mean ± stdev of 3 biological replicates. c Viability of healthy T-cells measured by propidium iodide (PI) exclusion. Data are the mean ± stdev of 8 biological replicates for 1–16 µM AVX420, 5 for 32 µM AVX420 and 2 for 0.5 µM Staurosporine (Stau). d Cell viability measured by CTG assay in cells preincubated with 2.5 mM glutathione (GSH) or 2.5 mM N-acetyl cysteine (NAC) for 30 min before addition of 0.5 or 1 µM AVX420, 0.06 µM RSL-3, or 0.06 µM ML-210 for 24 h. Data are the mean ± stdev of 3 biological replicates. P-values were determined by one-way ANOVA with Dunnett’s correction for multiple testing and **** indicates P < 0.0001. e Cell viability measured by CTG assay. CCRF-CEM or Jurkat cells were co-treated with 0.5 µM AVX420 and either arachidonic acid (AA) at concentrations ranging from 1 to 100 µM or a mixture of 9 eicosanoids: 6-keto prostaglandin F1α, Thromboxane B2, prostaglandin F2α, prostaglandin E2, prostaglandin D2, 12(S)-HHTrE, 15(S)-HETE,12(S)-HETE, 5(S)-HETE at a final concentration of 2 ng/mL each (EIC-mix) for 24 h. Data are the mean ± stdev of 3 biological replicates. P-values were determined by two-way ANOVA with Sidak’s correction for multiple comparisons. f Proportion of intracellular ROS-positive cells measured by ROS-red staining and flow cytometry. Cells were treated with indicated concentrations of AVX420 (µM), 1 mM H2O2, 1 µM RSL-3, or 1 µM doxorubicin (dox) for 4 h. Data are the mean ± stdev of 3 biological replicates. g Intracellular ROS measurements in CCRF-CEM cells treated with AVX420 (0.5 µM), AVX002 (8 µM), or AACOCF3 (8 µM) for 4 h.
All cell lines were confirmed to be free of mycoplasma contamination. The cell lines were not authenticated. MV-4-11 were cultured in Iscove’s Modified Dulbecco’s Medium (Sigma, I3390). CCRF-CEM, Jurkat E6.1, and HL-60 cells were cultured in RPMI 1640 Medium RPMI-1640 medium (Sigma, R5886).

`CCCCCCCOc1ccc(OCC(=O)c2nc(C(=O)OC)cs2)cc1` [GK420] was tested, and the “cell viability (0 µM = 100)” value (0.007 µM, 24H) was 100, the “cell viability (0 µM = 100)” value (0.015 µM, 24H) was 90 and the “cell viability (0 µM = 100)” value (0.015 µM, 72H) was 81. The “cell viability (0 µM = 100)” value (0.031 µM, 24H) was 99, the “cell viability (0 µM = 100)” value (0.062 µM, 24H) was 103 and the “cell viability (0 µM = 100)” value (0.062 µM, 48H) was 84. The “cell viability (0 µM = 100)” value (0.062 µM, 72H) was 70, the “cell viability (0 µM = 100)” value (0.125 µM, 72H) was 45 and 46 and the “cell viability (0 µM = 100)” value (0.25 µM, 24H) was 69 and 65. For the same molecule, the “cell viability (0 µM = 100)” value (0.25 µM, 48H) was 43, the “cell viability (0 µM = 100)” value (0.25 µM, 72H) was 16 and 24 and the “cell viability (0 µM = 100)” value (0.5 µM, 24H) was 42 and 39. For the same molecule, the “cell viability (0 µM = 100)” value (0.5 µM, 48H) was 19, the “cell viability (0 µM = 100)” value (0.5 µM, 72H) was 5.44 and 10 and the “cell viability (Control = 100)” value (0.5 µM, listed as AVX420, 0.5 µM) was 56 and 50. For the same molecule, the “cell viability (0 µM = 100)” value (1 µM, 24H) was 23, the “cell viability (0 µM = 100)” value (1 µM, 48H) was 10 and the “cell viability (0 µM = 100)” value (1 µM, 72H) was 3 and 4.53. The “cell viability (Control = 100)” value (1 µM, listed as AVX420, 1 µM) was 38, the “cell viability (0 µM = 100)” value (2 µM, 24H) was 11 and the “cell viability (0 µM = 100)” value (2 µM, 48H) was 3 and 2. For the same molecule, the “cell viability (0 µM = 100)” value (2 µM, 72H) was 1.13, the “cell viability (0 µM = 100)” value (4 µM, 72H) was 0.147 and the effect on viability (CTG) was “strong dose-dependent effect”. For the same molecule, the viability at 0.007 µM (Homo sapiens, 24 h, read-out: cell viability (0 µM = 100), CCRF-CEM, 0.007 µM, 24H) was 98%, the viability at 0.015 µM (Homo sapiens, 24 h, read-out: cell viability (0 µM = 100), CCRF-CEM, 0.015 µM, 24H) was 98% and the viability at 0.031 µM (Homo sapiens, 24 h, read-out: cell viability (0 µM = 100), CCRF-CEM, 0.031 µM, 24H) was 98%. It also gave a viability at 0.062 µM (Homo sapiens, 24 h, read-out: cell viability (0 µM = 100), CCRF-CEM, 0.062 µM, 24H) of 98%, a viability at 0.25 µM (Homo sapiens, 24 h, read-out: cell viability (0 µM = 100), CCRF-CEM, 0.25 µM, 24H) of 68% and a viability at 0.5 µM (Homo sapiens, 24 h, read-out: cell viability (0 µM = 100), CCRF-CEM, 0.5 µM, 24H) of 49%. The viability at 1 µM (Homo sapiens, 24 h, read-out: cell viability (0 µM = 100), CCRF-CEM, 1 µM, 24H) was 27%, the viability at 2 µM (Homo sapiens, 24 h, read-out: cell viability (0 µM = 100), CCRF-CEM, 2 µM, 24H) was 14% and the viability at 0.007 µM (Homo sapiens, 48 h, read-out: cell viability (0 µM = 100), CCRF-CEM, 0.007 µM, 48H) was 94%. The viability at 0.015 µM (Homo sapiens, 48 h, read-out: cell viability (0 µM = 100), CCRF-CEM, 0.015 µM, 48H) was 95%, the viability at 0.031 µM (Homo sapiens, 48 h, read-out: cell viability (0 µM = 100), CCRF-CEM, 0.031 µM, 48H) was 87% and the viability at 0.062 µM (Homo sapiens, 48 h, read-out: cell viability (0 µM = 100), CCRF-CEM, 0.062 µM, 48H) was 85%. It also gave a viability at 0.125 µM (Homo sapiens, 48 h, read-out: cell viability (0 µM = 100), CCRF-CEM, 0.125 µM, 48H) of 67%, a viability at 0.25 µM (Homo sapiens, 48 h, read-out: cell viability (0 µM = 100), CCRF-CEM, 0.25 µM, 48H) of 41% and a viability at 0.5 µM (Homo sapiens, 48 h, read-out: cell viability (0 µM = 100), CCRF-CEM, 0.5 µM, 48H) of 17%. The viability at 1 µM (Homo sapiens, 48 h, read-out: cell viability (0 µM = 100), CCRF-CEM, 1 µM, 48H) was 9%, the viability at 2 µM (Homo sapiens, 48 h, read-out: cell viability (0 µM = 100), CCRF-CEM, 2 µM, 48H) was 4% and the viability at 0.007 µM (Homo sapiens, 72 h, read-out: cell viability (0 µM = 100), CCRF-CEM, 0.007 µM, 72H) was 82%. The viability at 0.015 µM (Homo sapiens, 72 h, read-out: cell viability (0 µM = 100), CCRF-CEM, 0.015 µM, 72H) was 78%, the viability at 0.031 µM (Homo sapiens, 72 h, read-out: cell viability (0 µM = 100), CCRF-CEM, 0.031 µM, 72H) was 76% and the viability at 0.062 µM (Homo sapiens, 72 h, read-out: cell viability (0 µM = 100), CCRF-CEM, 0.062 µM, 72H) was 67%. The viability at 0.125 µM (Homo sapiens, 72 h, read-out: cell viability (0 µM = 100), CCRF-CEM, 0.125 µM, 72H) was 40%, the viability at 0.25 µM (Homo sapiens, 72 h, read-out: cell viability (0 µM = 100), CCRF-CEM, 0.25 µM, 72H) was 21% and the viability at 0.5 µM (Homo sapiens, 72 h, read-out: cell viability (0 µM = 100), CCRF-CEM, 0.5 µM, 72H) was 7%. It also gave a viability at 1 µM (Homo sapiens, 72 h, read-out: cell viability (0 µM = 100), CCRF-CEM, 1 µM, 72H) of 3.38%, a viability at 2 µM (Homo sapiens, 72 h, read-out: cell viability (0 µM = 100), CCRF-CEM, 2 µM, 72H) of 1% and a viability at 4 µM (Homo sapiens, 72 h, read-out: cell viability (0 µM = 100), CCRF-CEM, 4 µM, 72H) of 0.214%. For the same molecule, the viability at 0.5 µM (Homo sapiens, read-out: cell viability (Control = 100), CCRF-CEM, 0.5 µM, VEH) was 52% and the viability at 1 µM (Homo sapiens, read-out: cell viability (Control = 100), CCRF-CEM, 1 µM, VEH) was 37%.
